Test [1] relates to oxaliplatin-induced allodynia model rats. In words: Von Frey test in oxaliplatin-induced allodynia model rats. The class given is in vivo, rat. The conditions noted are these: OXA 4 mg/kg i.p. 8 doses, prophylactic, FIG. 1. The protocol:
Six to eight-week-old male SD rats (from 200 to 400 g) were used, and oxaliplatin (hereinafter may be abbreviated as OXA) was administered into the peritoneal cavity of rats at a dose of 4 mg/kg. A total of eight doses were given with a regimen of twice weekly for four weeks (Days 1, 2, 7, 8, 13, 14, 19, and 20). A solvent for OXA, i.e., a 5% glucose solution, was similarly administered to a control group. Elplat I.V. Infusion Solution 100 mg (Yakult Honsha Co., Ltd.) was used as OXA.
Laboratory animals were divided into five groups: a control group, an OXA administration group, and groups each receiving administration of OXA and PC-SOD 0.1, 0.3, or 1 mg/kg (OXA+PC-SOD administration groups) (n=8 per group). In an experiment of prevention, PC-SOD was administered into the caudal vein from 5 to 15 minutes after administration of OXA in the OXA+PC-SOD administration group. […]
Data were expressed with mean±standard error (SEM). Statistical processing of the results was performed by Student's t test for comparison of two groups and ANOVA one way test (post-hoc Tukey's test) for comparison of three or more groups, and a statistically significant difference was determined when the hazard ratio was 5% or lower (*, **, and *** in the figures: p<0.05, p<0.01, and p<0.001, respectively).

For test [2], the system named is peripheral blood cells of CIS-treated rats. Briefly: Assessment of myelosuppression caused by cisplatin (peripheral blood cell count). The class given is in vivo, rat. The following applies: CIS 3 mg/kg i.p. 8 doses, PC-SOD 1 mg/kg caudal vein, FIG. 14. The procedure:
Six to eight-week-old male SD rats (from 200 to 400 g) were used. […] A total of eight doses were given with a regimen of twice weekly for four weeks (Days 1, 2, 7, 8, 13, 14, 19, and 20). A solvent for CIS, i.e., physiological saline, was similarly administered to a control group. […] Laboratory animals were divided into three groups: a control group, a CIS administration group, and a group receiving administration of CIS and PC-SOD 1 mg/kg (CIS+PC-SOD administration group) (n=6 per group). For an experiment of prevention, PC-SOD was administered into the caudal vein from five to 15 minutes after CIS administration in the CIS+PC-SOD administration group. A total of eight doses were given with a regimen of twice weekly for four weeks, (Days 1, 2, 7, 8, 13, 14, 19, and 20). A solvent for PC-SOD was similarly administered to the control group and the CIS administration group. Peripheral blood was collected from the rat caudal vein three days later, and peripheral blood was analyzed by using an automated blood cell counter (MEK-6458, Nihon Kohden Corporation).

In test [3] the test system is PC12 cells differentiated by NGF. Briefly: Neurite retraction in NGF-differentiated PC12 cells caused by anticancer agents. It is filed as cell-based, rat. The following applies: 24 hours; for neurite retraction caused by oxaliplatin: oxaliplatin 20 μM. The procedure: Rat adrenal gland pheochromocytoma-derived PC12 cells are known to be differentiated into neuron-like cells having neurites by nerve growth factor (NGF) and are widely used as a nerve cell model. To assess the neurite-protective action of PC-SOD, the effect of PC-SOD in neurite disorder caused by various anticancer agents was analyzed by using PC12 cells differentiated by NGF.
PC12 cells were seeded on a 24-well plate coated with collagen at 5 000 cells/well. […] The images of cells were captured by using a microscope (BZ-X800, Keyence Corporation), and the neurite lengths were measured by using an image analysis software ImageJ (NIH).
PC12 cells were seeded on a 24-well plate coated with collagen at 5 000 cells/well. […] After neurite elongation, cells were cultured by using differentiation media each containing carboplatin (with a final concentration of 50 μM) alone or carboplatin and PC-SOD (with final concentrations of 10, 20, 50, and 100 μg/mL) for 24 hours. The images of cells were captured by using a microscope (BZ-X800, Keyence Corporation), and the neurite lengths were measured by using an image analysis software ImageJ (NIH).
PC12 cells were seeded on a 24-well plate coated with collagen at 5 000 cells/well. […] After neurite elongation, cells were cultured by using differentiation media each containing paclitaxel (abbreviated as PTX in the figure of results) alone (with a final concentration of 0.1 μM) or paclitaxel and PC-SOD (with final concentrations of 10, 50, and 100 μg/mL) for 24 hours. The images of cells were captured by using a microscope (BZ-X800, Keyence Corporation), and the neurite lengths were measured by using an image analysis software ImageJ (NIH).

A further test relates to RAW cells. In words: Toxicity of anticancer agents against RAW cells (CellTiter-Glo viable cell count). It is filed as cell-based. The following applies: gemcitabine, oxaliplatin, cisplatin or carboplatin with simultaneous PC-SOD, 24 hours; FIG. 12-2. The procedure: RAW cells were seeded on a 96-well plate at 20 000 cells/well (D-MEM high glucose medium containing 10% inactivated FBS). […] The number of viable cells was counted 24 hours later by measuring chemical luminescence by using CellTiter-Glo™ 2.0 Cell Viability Assay (Promega) and a plate reader (Tecan, Infinite M Plex). Cells for four wells were analyzed for each group.
On the technique in general: ATP-based viability assays read luminescence as a measure of living cells.

Test [4] relates to L5 DRG neurons of OXA-treated rats. In words: Assessment of pathological damage to DRG (HE staining). It is filed as in vivo, rat. The following applies: OXA+PC-SOD 1 mg/kg; FIG. 4. An excerpt:
A tissue of L5 DRG neuron was collected, stored in a 10% neutral buffered formalin solution, fixed, and then washed with PBS. The tissue was subjected to 70% ethanol substitution to prepare a paraffin block, and the block was thinly sliced and subjected to HE staining. The thickness of the thinly sliced sample block was from 2 to 3 μm. By using the prepared pathological sample slide, one to three images of each sample were captured at 200 and 400-fold magnifications by the optical microscope function of All-in-One Fluorescence Microscope (BZ-X800, Keyence Corporation). Multinucleation of the nucleolus of DRG neurons and abnormal morphology of the nucleolus were assessed as indicators of DRG neuron disorder (Scale bar=50 μm).

In the case of “lecithinized superoxide dismutase [PC-SOD]”, the “decrease in pain sensation threshold caused by OXA (von Frey test)” value is on record as “significantly suppressed” in test [1] (PC-SOD 1 mg/kg caudal vein); “suppressed by PC-SOD in a concentration-dependent manner” in test [1] (PC-SOD 0.1, 0.3 and 1 mg/kg caudal vein). The “decrease in platelets (PLTs) caused by CIS” value in test [2] was “decreases in WBCs and PLTs were suppressed”. In test [2], the “decrease in white blood cells (WBCs) caused by CIS” value was “decreases in WBCs and PLTs were suppressed”. The “neurite retraction caused by carboplatin” value in test [3] (carboplatin 50 μM, PC-SOD 10, 20, 50, 100 μg/mL, FIG. 7-2) is “suppressed by simultaneous addition of PC-SOD dependently on the PC-SOD concentration”. In addition, the “neurite retraction caused by cisplatin” value in test [3] (cisplatin 33 μM, PC-SOD 10, 50, 100 μg/mL, FIG. 7-1) was “significantly suppressed as compared with addition of cisplatin alone”. Moreover, the “neurite retraction caused by oxaliplatin” value is “markedly suppressed by simultaneous addition of PC-SOD dependently on the PC-SOD concentration” in test [3] (PC-SOD 10, 50, 100 μg/mL, FIG. 7-1) and “suppressed almost completely” in test [3] (test substance 50 μg/mL, FIG. 8). Further, the “neurite retraction caused by paclitaxel” value in test [3] (paclitaxel 0.1 μM, PC-SOD 10, 50, 100 μg/mL, FIG. 7-3) is “suppressed by simultaneous addition of PC-SOD dependently on the PC-SOD concentration”. For the same substance, the “anticancer agent-dependent decrease in number of viable RAW cells” value in the test on RAW cells is “significantly suppressed the anticancer agent-dependent decreases in the number of viable cells dependently on the concentration of PC-SOD”. Further, in test [4], the “pathological damage to DRG caused by OXA (multinucleation and abnormal morphology of nucleoli)” value is on record as “a suppressive effect on pathological damage to DRG caused by OXA was shown”.

The values are drawn from patent US20240261375A1, “PHARMACEUTICAL COMPOSITION FOR TREATING OR PREVENTING DISORDER ASSOCIATED WITH ADMINISTRATION OF ANTICANCER AGENT” (LTT BIO-PHARMA CO., LTD., priority 2021, published 2024).
